What is called IC50 is the midpoint of a concentration-inhibition curve.

Assay [1] addresses influenza B neuraminidase. The assay is classed as biochemical, influenza B virus. To be noted: read-out: IC50.
Assay [2] deals with A/H1N1pdm09 neuraminidase. It is filed as biochemical, influenza A/H1N1pdm09 virus. To be noted: read-out: IC50.

Each structure is given as a SMILES string. Values joined by “and” are separate entries in the source; they are usually repeats but may differ in a detail not shown here. Equal entries are not always repeated.

On to `CCOC(=O)C1=C[C@@H](OC(CC)CC)[C@H](NC(C)=O)[C@@H](N)C1` [Oseltamivir, oseltamivir phosphate], for which the IC50 in assay [1] was 14 nM.

Consider `CCC(CC)[C@H](NC(C)=O)[C@@H]1[C@H](O)[C@@H](C(=O)O)C[C@H]1N=C(N)N` [Peramivir, peramivir hydrate], for which, in assay [2], the IC50 was 0.45 nM and 0.65 nM and 0.26 nM.

The record behind these values is publication PMC6379637, “Consecutive influenza surveillance of neuraminidase mutations and neuraminidase inhibitor resistance in Japan” (Influenza and Other Respiratory Viruses, 2019).
